# Patent US9428501B2, “Bicyclic nitrogen-containing aromatic heterocyclic amide compound” (ASTELLAS PHARMA INC., priority 2013, dated 2016)
# pEC50, pIC50: −log10 of the molar value. Where two headings read alike, the source gives them in different places.
# Experiments:
# [1] = system: human PIK3CA mutation-positive breast cancer cell line MDA-MB-453 cells; test: Scaffold independent cell proliferation inhibitory effect, MDA-MB-453 cells; assay type: cell-based; settings: non-adhesive plate, 4 days, CellTiter-Glo, read-out: IC50 (cell proliferation inhibition)
# Experimental: The effect on proliferation of cancer cells of the test compound was evaluated.
# Measurement (colony method) of the scaffold independent cell proliferation is known as a system in which the anti-cancer effect of the test compound is examined. As a method for measuring cell-non-adhesive proliferation substituting the colony method, there is a method of using a non-adhesive plate as follows.
# Thereafter, the cells were cultured for 4 days at 37° C. in the absence of CO2, and a cytometric reagent (CellTiter-Glo Luminescent Cell Viability assay manufactured by Promega Corporation) was added. The resultant product was stirred for 30 minutes, and then measurement was carried out using a luminescence measurement apparatus (ARVO manufactured by Perkin Elmer Inc.).
# AMPK = test: Evaluation of AMPK activation effect (phosphorylation of ACC Ser79, Cell ELISA in MDA-MB-453 cells); assay type: cell-based, human; settings: 2 hours
# Experimental: By measuring phosphorylation of 79th serine (Ser79) of Acetyl-CoA Carboxylase (ACC) which is a substrate of AMPK with Cell ELISA, the AMPK activation effect by the test compound was evaluated.
# In order to make MDA-MB-453 cell become 15000 cells per well, each 36 μl was seeded in Leibovitz's L-15 medium including 10% fetal bovine serum (manufactured by Life Technologies Corp.) in a 384 well plate, followed by culturing at 37° C. overnight in the absence of CO2. […] After the incubation, 20 μl of a 40% glyoxal solution (Nacalai Tesque) was added to each well, and then cells were fixed by leaving to stand at room temperature for 30 minutes. Thereafter, the supernatant was removed by centrifuging the plate, and then 0.1% Triton X-100-containing Phosphate-Buffered Saline (PBS) was added to each well by 20 followed by incubating at room temperature for 10 minutes. The 0.1% Triton X-100-containing PBS was removed by centrifuging for 8 seconds at 800 rpm (all solution removal operation by centrifuge described below were carried out under the same conditions), and then a blocking solution (ODYSSEY Blocking Buffer; manufactured by Li—COR Biosciences) was added to each well by 20 μl, followed by leaving to stand at room temperature for 1 hour. The blocking solution was removed by centrifuging, with the exception of the blocking solution by centrifugation, and then a blocking solution which was diluted such that the amount of phosphorylation antibody (manufactured by Cell Signaling Technology, Inc) of ACC Ser79 as a primary antibody is 1/500 was added to each well by 10 followed by leaving to stand at 4° C. overnight. The following day, the reaction liquid was removed by centrifuging the plate, and then 0.05% Tween-20-containing Tris-Buffered Saline (TBS) (manufacture by Thermo Scientific Inc.; used in 1× in which 20×TBS Tween-20 was diluted with ion-exchange water) was added to each well by 25 followed by washing each well by centrifugal removal. The washing of each well was repeated for a total of 3 times. After washing, a blocking solution which was diluted such that the amount of IRDye 800CW Goat anti-Rabbit IgG (manufactured by Li—CoR Biosciences) as a secondary antibody is 1/1000 was added to each well by 10 μl, followed by leaving to stand at room temperature for 1 hour. After the secondary antibody reaction, the reaction liquid was removed by centrifuging the plate, and then each well was washed three times with 0.05% Tween-20-containing TBS in the same manner as after the primary antibody reaction. After the washing solution was removed, without change, the plate was air-dried at room temperature for 3 hours or longer and signals were measured by Aerius (manufactured by Li—CoR Biosciences).
# MDA-MB-453 cells = test: Anti-tumor effect in MDA-MB-453 cell cancer-bearing mouse; assay type: in vivo; settings: oral, once a day for 15 days, Balb/c nude mouse
# Experimental: 3×10^6 cells of MDA-MB-453 cells which were suspended with PBS were subcutaneously injected to be planted in the back of a 5 to 6 weeks old male Balb/c nude mouse (provided by Charles River Laboratories, Japan). 10 days after planting, the test compound was administered. The test was carried out on respective five mice of the solvent group and the test compound administered group, and 6% aqueous cyclodextrin solution was administered to the solvent group, and a mixture of 6% aqueous cyclodextrin solution and the test compound (1 or 3 mg/kg) was orally administered to the test compound administered group. Administration was carried out once a day for 15 days, and body weight and tumor size were measured approximately every other day. The following equation was used to calculate the tumor volume.
# [2] = molecular target: human mitochondrial Complex I (Homo sapiens, UniProt O75251+O75306+P03886); assay type: biochemical
# Experimental: Mitochondria was extracted from MDA-MB-453 tumor, and the Complex I inhibitory activity of the test compound was evaluated.
# Human PIK3CA mutation-positive breast cancer cell line MDA-MB-453 cells were subcutaneously implanted into nude mice, MDA-MB-453 tumor was excised, a mitochondria extraction solution (0.25 M Sucrose, 2 mM EDTA, 10 mM Tris/HCl pH 7.5) of 9 times of tumor weight was added thereto, and crushing was carried out thereon. The reaction mixture was centrifuged at 600×g and 4° C. for 10 minutes to obtain a supernatant, and the supernatant was centrifuged at 14000×g and 4° C. for 10 minutes, thereby obtaining a pellet. The pellet was suspended in 10 mM Tris/HCl pH 7.5 of 5 times of the excised tumor weight, thereby obtaining a human mitochondrial suspension.
# Next, 25 μl of the human mitochondrial suspension per 1 ml of Complex I activity measurement solution (200 mM potassium phosphate pH 7.6, 0.35% Bovine Serum Albumin (BSA), 60 μM 2,6-dichlorophenol-indophenol, 70 μM decylubiquinone, 1 μM antimycin) was added. After dispensed into a 96 or 384-well plate, a test compound (from 10000 nM to 0.3 nM) and DMSO which is a solvent for the test compound as a negative control were added such that a final concentration of Rotenone which is a Complex I inhibitor as a positive control becomes 1 μM. Further, NADH was added so as to have a final concentration of 0.2 mM, and a change in absorbance at a wavelength of 600 nm using SpectraMax (manufactured by Molecular Devices LLC) set to 37° C. in advance was measured. […] Moreover, in the Table, Ex indicates Example No. (the same shall apply hereinafter.).
# [3] = mitochondria from MDA-MB-453 tumor, absorbance 600 nm, 37° C.; read-out: IC50 (Complex I inhibition)
# human mitochondrial Complex I, sequence (O75251 39-213 limits assumed): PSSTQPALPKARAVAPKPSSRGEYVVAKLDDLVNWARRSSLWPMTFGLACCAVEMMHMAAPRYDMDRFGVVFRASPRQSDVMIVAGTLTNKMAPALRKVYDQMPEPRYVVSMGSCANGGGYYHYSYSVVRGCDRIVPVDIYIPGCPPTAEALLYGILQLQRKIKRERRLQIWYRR
# human mitochondrial Complex I, sequence (O75306 34-463 limits assumed): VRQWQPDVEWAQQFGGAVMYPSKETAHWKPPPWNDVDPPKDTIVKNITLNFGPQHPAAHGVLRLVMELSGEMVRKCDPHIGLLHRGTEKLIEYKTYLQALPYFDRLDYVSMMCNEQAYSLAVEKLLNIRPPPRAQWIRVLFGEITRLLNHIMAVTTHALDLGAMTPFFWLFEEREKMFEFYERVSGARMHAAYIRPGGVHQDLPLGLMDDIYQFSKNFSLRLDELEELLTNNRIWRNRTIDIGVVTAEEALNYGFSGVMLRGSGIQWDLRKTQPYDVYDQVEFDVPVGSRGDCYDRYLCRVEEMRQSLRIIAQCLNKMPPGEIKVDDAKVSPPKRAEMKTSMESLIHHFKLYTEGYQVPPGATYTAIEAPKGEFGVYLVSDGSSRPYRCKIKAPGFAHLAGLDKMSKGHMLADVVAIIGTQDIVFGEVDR
# human mitochondrial Complex I, sequence (P03886 whole entry): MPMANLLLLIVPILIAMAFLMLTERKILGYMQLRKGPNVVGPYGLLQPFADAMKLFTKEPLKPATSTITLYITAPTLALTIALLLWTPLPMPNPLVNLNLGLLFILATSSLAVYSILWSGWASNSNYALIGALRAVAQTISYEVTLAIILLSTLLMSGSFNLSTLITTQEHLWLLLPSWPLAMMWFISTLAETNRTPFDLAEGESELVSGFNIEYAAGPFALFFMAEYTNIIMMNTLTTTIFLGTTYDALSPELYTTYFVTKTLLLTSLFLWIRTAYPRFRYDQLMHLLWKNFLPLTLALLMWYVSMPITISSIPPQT
Structure (SMILES),"pIC50 ([1]; Homo sapiens, 96 h)",pEC50 (AMPK),"pIC50 [2, 3]",further results
COc1cnc(CN2CCC(c3ccn4nc(C(=O)N5CCN(Cc6ccc(C(F)(F)F)cc6)CC5)cc4c3)CC2)cn1 [Example 50],8.40,7.85,,
COc1ccc(CN2CCC(c3ccc4nc(C(=O)N5CCN(Cc6ccc(C(F)(F)F)cc6)CC5)[nH]c4c3)CC2)cc1 [Example 14],8.12,7.47,,
CCOc1cnc(CN2CCC(c3ccc4cc(C(=O)N5CCN(Cc6ccc(C#N)cc6)CC5)n(C)c4c3)CC2)cn1 [Example 69],8.49,,7.66,"Anti-tumor effect, regression rate (MDA-MB-453 cells; 1 mg/kg): 87% regression"
COc1ccc(CN2CCC(c3ccc4nc(C(=O)N5CCN(Cc6ccc(C(F)(F)F)cc6)CC5)cn4c3)CC2)cn1 [Example 35],,8.44,,
COc1ccc(CN2CCC(c3ccc4c(c3)nc(C(=O)N3CCN(Cc5ccc(C(F)(F)F)cc5)CC3)n4C)CC2)cn1 [Example 19],8.07,8.00,,
CCOc1cnc(CN2CCC(c3ccc4c(c3)cc(C(=O)N3CCN(Cc5ccc(C#N)cc5)CC3)n4C)CC2)cn1 [Example 66],8.21,8.55,6.92,"Anti-tumor effect, regression rate (MDA-MB-453 cells; 1 mg/kg): 91% regression"
"COc1ccc(CN2CCC(c3ccc4[nH]c(C(=O)N5CCN(Cc6ccc(C(F)(F)F)cc6)CC5)nc4c3)CC2)cn1 [Example 1, (5-{1-[(6-methoxypyridin-3-yl)methyl]piperidin-4-yl}-1H-benzimidazol-2-yl){4-[4-(trifluoromethyl)benzyl]piperazin-1-yl}methanone ditosylate]",,,,"Anti-tumor effect, regression rate (MDA-MB-453 cells; 3 mg/kg): 26% regression"
COc1cnc(CN2CCC(c3ccc4c(c3)cc(C(=O)N3CCN(Cc5ccc(C#N)cc5)CC3)n4C)CC2)cn1 [Ex 79],,8.48,6.92,"pIC50 [1]: 8.11; Anti-tumor effect, regression rate (MDA-MB-453 cells; 1 mg/kg): 43% regression"
COc1ccc(CN2CCC(n3cc4cc(C(=O)N5CCN(Cc6ccc(C(F)(F)F)cc6)CC5)ccc4n3)CC2)cn1 [Example 57],,8.74,,
COc1ccc(CN2CCC(c3ccc4nc(C(=O)N5CCN(Cc6ccc(C(F)(F)F)cc6F)CC5)[nH]c4c3)CC2)cn1 [Example 38],8.09,7.89,7.23,
"Cc1cnc(CN2CCC(c3ccc4nc(C(=O)N5CCN(Cc6ccc(C(F)(F)F)cc6)CC5)[nH]c4c3)CC2)cn1.Cl.Cl.Cl [Example 8, (6-{1-[(5-methylpyrazin-2-yl)methyl]piperidin-4-yl}-1H-benzimidazol-2-yl){4-[4-(trifluoromethyl)benzyl]piperazin-1-yl}methanone trihydrochloride]",7.59,7.89,,"Anti-tumor effect, inhibition rate (MDA-MB-453 cells; 3 mg/kg): 88% inhibition; pIC50 ([2]; read-out: IC50 (Complex I inhibition); mitochondria from MDA-MB-453 tumor, absorbance 600 nm, 37° C.): 7.08"
COc1ccc(CN2CCC(c3ccc4nc(C(=O)N5CCN(Cc6ccc(C#N)cc6)CC5)[nH]c4c3)CC2)cn1 [Example 23],7.40,7.72,6.80,
COc1ccc(CN2CCC(c3cc4cc(C(=O)N5CCN(Cc6ccc(C(F)(F)F)cc6)CC5)n(C)c4cn3)CC2)cn1 [Example 44],8.38,8.28,7.06,
CCOc1cnc(CN2CCC(n3cc4cc(C(=O)N5CCN(Cc6ccc(C(F)(F)F)cc6)CC5)ccc4n3)CC2)cn1 [Example 58],9.26,9.07,,
COc1ccc(CN2CCC(c3ccn4nc(C(=O)N5CCN(Cc6ccc(C(F)(F)F)cc6)CC5)cc4c3)CC2)cn1 [Example 49],8.55,8.19,7.74,
COc1ccc(CN2CCC(c3ccc4nc(C(=O)N5CCN(Cc6ccc7c(c6)OC(F)(F)O7)CC5)[nH]c4c3)CC2)cn1 [Example 37],8.05,8.00,7.54,
"COc1ccc(CN2CCC(c3ccn4cc(C(=O)N5CCN(Cc6ccc(C(F)(F)F)cc6)CC5)nc4c3)CC2)cn1 [Example 36, (7-{1-[(6-methoxypyridin-3-yl)methyl]piperidin-4-yl}imidazo[1,2-a]pyridin-2-yl){4-[4-(trifluoromethyl)benzyl]piperazin-1-yl}methanone ditosylate]",7.96,8.29,7.26,"Anti-tumor effect, regression rate (MDA-MB-453 cells; 3 mg/kg): 10% regression"
"COc1cnc(CN2CCC(c3ccc4[nH]c(C(=O)N5CCN(Cc6ccc(C(F)(F)F)cc6)CC5)nc4c3)CC2)cn1 [Example 7, (5-{1-[(5-methoxypyrazin-2-yl)methyl]piperidin-4-yl}-1H-benzimidazol-2-yl){4-[4-(trifluoromethyl)benzyl]piperazin-1-yl}methanone ditosylate]",7.92,,7.12,"Anti-tumor effect, regression rate (MDA-MB-453 cells; 3 mg/kg): 49% regression"
COc1ccc(CN2CCC(c3ccc4nc(C(=O)N5CCN(Cc6ccc(C(F)(F)F)cc6)CC5)n(C)c4c3)CC2)cn1 [Example 18],,8.52,,
